# Reference: PubChem BioAssay (NCI)
# “And” between values parts separate entries of the source, which are not always exact repeats. Equal entries are not always repeated.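 In this assay, cells in 96-well plates receive the compound at five concentrations for 48 hours. Endpoints are linearly interpolated between the surrounding concentrations. Here, GI50 denotes the concentration required for 50% inhibition of growth. The concentration for full growth arrest is given as TGI.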
# System: NCI-H226 lung
# Assay: growth of human tumour cells (NCI), 48 h
Compound,GI50,TGI
CC(C)CC(C/C=C1/CC(CO)(COC(=O)C(C)(C)C)OC1=O)CC(C)C (stereo not drawn),3.34 µM and 14.1 µM,17.6 µM and 28.5 µM
O=C(Nc1cc(Nc2ncccc2-c2ncnc3nc[nH]c23)ccc1F)c1cc(C(F)(F)F)cc(C(F)(F)F)c1,2.74 µM,> 10 µM
CN(C)C(=S)SSC(=S)N(C)C,21.4 µM and > 78.4 µM and 38.3 µM,84.6 µM and > 100 µM and > 65.8 µM
COc1cc(/C=C\c2cc(OC)c(OC)c(OC)c2)cc(N/C=C\C(=O)c2c[nH]c3ccccc23)c1OC,7.28 µM,27.7 µM
Cn1c(=O)c2c(nc(C(=N)SCC(=O)O)n2C)n(C)c1=O,–,> 100 µM
COc1ccc(-c2nn(-c3cccc(Cl)c3)cc2-c2cc(-c3ccccc3)[nH]c(=O)c2C#N)cc1,0.969 µM,> 50 µM
Nc1cc(Br)c(-c2nnc(CCC(=O)c3nc4ccccc4[nH]3)o2)c(Br)c1,22.6 µM,> 100 µM
CC(C)(C)[Si](C)(C)OC1[C@@H](CNC(=O)NC(=O)CCl)O[C@@H](n2cnc3c(N)ncnc32)[C@H]1O[Si](C)(C)C(C)(C)C (stereo partly drawn),0.956 µM,2 µM
COc1ccc(/C(C)=C(\c2ccc(OCCN3CCCCCC3)cc2)c2ccc(OC(=O)C3CCCCC3)cc2)cc1,2.02 µM,4.77 µM

# System: SK-OV-3 ovarian
# Assay: growth of human tumour cells (NCI), 48 h
Compound,TGI [µM],GI50
CC(C)CC(C/C=C1/CC(CO)(COC(=O)C(C)(C)C)OC1=O)CC(C)C (stereo not drawn),39.7,–
O=C(Nc1cc(Nc2ncccc2-c2ncnc3nc[nH]c23)ccc1F)c1cc(C(F)(F)F)cc(C(F)(F)F)c1,9.19,2.78 µM
CN(C)C(=S)SSC(=S)N(C)C,> 100,37.1 µM and > 100 µM and 31.9 µM
COc1cc(/C=C\c2cc(OC)c(OC)c(OC)c2)cc(N/C=C\C(=O)c2c[nH]c3ccccc23)c1OC,27,12.3 µM
Cn1c(=O)c2c(nc(C(=N)SCC(=O)O)n2C)n(C)c1=O,> 100,–
COc1ccc(-c2nn(-c3cccc(Cl)c3)cc2-c2cc(-c3ccccc3)[nH]c(=O)c2C#N)cc1,2.29,0.922 µM
Nc1cc(Br)c(-c2nnc(CCC(=O)c3nc4ccccc4[nH]3)o2)c(Br)c1,80.5,22.3 µM
CC(C)(C)[Si](C)(C)OC1[C@@H](CNC(=O)NC(=O)CCl)O[C@@H](n2cnc3c(N)ncnc32)[C@H]1O[Si](C)(C)C(C)(C)C (stereo partly drawn),2.01,1.05 µM
COc1ccc(/C(C)=C(\c2ccc(OCCN3CCCCCC3)cc2)c2ccc(OC(=O)C3CCCCC3)cc2)cc1,3.96,1.7 µM

# System: HCT-15 colon
# Assay: growth of human tumour cells (NCI), 48 h
Compound,TGI,GI50
CC(C)CC(C/C=C1/CC(CO)(COC(=O)C(C)(C)C)OC1=O)CC(C)C (stereo not drawn),29.1 µM and 28.7 µM,–
O=C(Nc1cc(Nc2ncccc2-c2ncnc3nc[nH]c23)ccc1F)c1cc(C(F)(F)F)cc(C(F)(F)F)c1,5.67 µM,2.12 µM
CN(C)C(=S)SSC(=S)N(C)C,29.4 µM and > 100 µM and 31 µM,13.4 µM and 47.9 µM and 13.5 µM
COc1cc(/C=C\c2cc(OC)c(OC)c(OC)c2)cc(N/C=C\C(=O)c2c[nH]c3ccccc23)c1OC,5.63 µM,2.32 µM
Cn1c(=O)c2c(nc(C(=N)SCC(=O)O)n2C)n(C)c1=O,> 100 µM,–
COc1ccc(-c2nn(-c3cccc(Cl)c3)cc2-c2cc(-c3ccccc3)[nH]c(=O)c2C#N)cc1,> 50 µM,27 µM
Nc1cc(Br)c(-c2nnc(CCC(=O)c3nc4ccccc4[nH]3)o2)c(Br)c1,> 100 µM,> 100 µM
CC(C)(C)[Si](C)(C)OC1[C@@H](CNC(=O)NC(=O)CCl)O[C@@H](n2cnc3c(N)ncnc32)[C@H]1O[Si](C)(C)C(C)(C)C (stereo partly drawn),1.67 µM,0.832 µM
COc1ccc(/C(C)=C(\c2ccc(OCCN3CCCCCC3)cc2)c2ccc(OC(=O)C3CCCCC3)cc2)cc1,1.41 µM,0.378 µM

# System: HOP-92 NSCLC
# Assay: growth of human tumour cells (NCI), 48 h
Compound,TGI,GI50
CC(C)CC(C/C=C1/CC(CO)(COC(=O)C(C)(C)C)OC1=O)CC(C)C (stereo not drawn),18.8 µM,–
O=C(Nc1cc(Nc2ncccc2-c2ncnc3nc[nH]c23)ccc1F)c1cc(C(F)(F)F)cc(C(F)(F)F)c1,3.92 µM,0.891 µM
CN(C)C(=S)SSC(=S)N(C)C,42.8 µM and > 100 µM and 36.7 µM,17.3 µM and 59.5 µM and 18.4 µM
COc1cc(/C=C\c2cc(OC)c(OC)c(OC)c2)cc(N/C=C\C(=O)c2c[nH]c3ccccc23)c1OC,4.5 µM,1.5 µM
Cn1c(=O)c2c(nc(C(=N)SCC(=O)O)n2C)n(C)c1=O,> 100 µM,–
COc1ccc(-c2nn(-c3cccc(Cl)c3)cc2-c2cc(-c3ccccc3)[nH]c(=O)c2C#N)cc1,2.14 µM,0.654 µM
Nc1cc(Br)c(-c2nnc(CCC(=O)c3nc4ccccc4[nH]3)o2)c(Br)c1,19.9 µM,0.499 µM
CC(C)(C)[Si](C)(C)OC1[C@@H](CNC(=O)NC(=O)CCl)O[C@@H](n2cnc3c(N)ncnc32)[C@H]1O[Si](C)(C)C(C)(C)C (stereo partly drawn),1.86 µM,0.885 µM
COc1ccc(/C(C)=C(\c2ccc(OCCN3CCCCCC3)cc2)c2ccc(OC(=O)C3CCCCC3)cc2)cc1,2.76 µM,0.813 µM

# System: SW-620 colon
# Assay: growth of human tumour cells (NCI), 48 h
Compound,TGI,GI50 [µM]
CC(C)CC(C/C=C1/CC(CO)(COC(=O)C(C)(C)C)OC1=O)CC(C)C (stereo not drawn),19.4 µM and 22 µM,–
O=C(Nc1cc(Nc2ncccc2-c2ncnc3nc[nH]c23)ccc1F)c1cc(C(F)(F)F)cc(C(F)(F)F)c1,> 10 µM,1.54
CN(C)C(=S)SSC(=S)N(C)C,22.8 µM and 22.1 µM and > 56.6 µM,–
COc1cc(/C=C\c2cc(OC)c(OC)c(OC)c2)cc(N/C=C\C(=O)c2c[nH]c3ccccc23)c1OC,3.31 µM,1.63
Cn1c(=O)c2c(nc(C(=N)SCC(=O)O)n2C)n(C)c1=O,> 100 µM,–
COc1ccc(-c2nn(-c3cccc(Cl)c3)cc2-c2cc(-c3ccccc3)[nH]c(=O)c2C#N)cc1,> 50 µM,9.23
Nc1cc(Br)c(-c2nnc(CCC(=O)c3nc4ccccc4[nH]3)o2)c(Br)c1,> 100 µM,3.28
CC(C)(C)[Si](C)(C)OC1[C@@H](CNC(=O)NC(=O)CCl)O[C@@H](n2cnc3c(N)ncnc32)[C@H]1O[Si](C)(C)C(C)(C)C (stereo partly drawn),1.77 µM,0.891
